For 33 compounds, IC50 results are on record in ChEMBL document CHEMBL4699486, “Fragment-based lead discovery of a novel class of small molecule antagonists of neuropeptide B/W receptor subtype 1 (GPR7)” (Bioorg Med Chem Lett, 2020).

Usually IC50 stands for the concentration needed to halve the response being measured.

Structures are written as SMILES. Bounds are passed on as bounds.

The assay addresses T1, Neuropeptides B/W receptor type 1 (Homo sapiens, UniProt P48145).
T1 sequence (P48145 whole entry): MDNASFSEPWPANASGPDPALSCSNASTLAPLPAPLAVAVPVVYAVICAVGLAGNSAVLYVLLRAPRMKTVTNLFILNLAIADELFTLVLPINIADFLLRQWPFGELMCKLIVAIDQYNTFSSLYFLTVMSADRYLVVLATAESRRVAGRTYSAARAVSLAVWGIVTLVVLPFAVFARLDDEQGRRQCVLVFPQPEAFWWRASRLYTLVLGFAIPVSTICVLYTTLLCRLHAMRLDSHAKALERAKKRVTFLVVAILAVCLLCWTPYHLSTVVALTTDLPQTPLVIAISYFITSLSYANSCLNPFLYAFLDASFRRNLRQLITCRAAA
Kind of assay: Antagonist activity at human NPBWR1 assessed as inhibition of agonist-induced cAMP accumulation by cAMP assay. The class given is functional.
Regarding `FC(F)(F)c1ccc2[nH]c(-c3ccccc3)nc2c1`, the IC50 was determined as 1.2 µM.
Take `O=[N+]([O-])c1ccc2[nH]c(-c3ccccc3)nc2c1`: the IC50 came out at 10 µM.
On to `O=[N+]([O-])c1ccc2nc(-c3ccc(Cl)cc3)[nH]c2c1`, for which the half-inhibitory concentration (IC50) came to 2.69 µM.
Regarding `Cc1ccc(-c2nc3cc([N+](=O)[O-])ccc3[nH]2)cc1`, the IC50 was determined as 1.5 µM.
With `COc1ccc(-c2nc3cc([N+](=O)[O-])ccc3[nH]2)cc1`, the IC50 amounted to 6.08 µM.
Consider `Nc1ccc(-c2nc3cc([N+](=O)[O-])ccc3[nH]2)cc1`, for which the IC50 turned out to be 8.48 µM.
Under `O=[N+]([O-])c1ccc2nc(-c3ccc(Cl)c(Cl)c3)[nH]c2c1` stands above 31.6 µM; under `O=[N+]([O-])c1ccc2nc(-c3ccc(Cl)cc3Cl)[nH]c2c1`, 2.88 µM; under `O=[N+]([O-])c1ccc2nc(-c3ccccc3Cl)[nH]c2c1`, 10.7 µM.
Under `O=[N+]([O-])c1ccc2[nH]c(-c3ccc(Cl)cc3Br)nc2c1` stands 1.76 µM; under `O=[N+]([O-])c1ccc2[nH]c(-c3ccc(-c4ccccc4)cc3)nc2c1`, 4.88 µM; under `O=[N+]([O-])c1ccc2[nH]c(-c3c(Cl)cc(Cl)cc3I)nc2c1`, 0.205 µM.
Under `Cc1ccc(-c2nc3cc([N+](=O)[O-])ccc3[nH]2)cc1C` stands 1.38 µM.
Turning to `CCc1ccc(-c2nc3cc([N+](=O)[O-])ccc3[nH]2)cc1`, the IC50 was found to be 1.02 µM.
Consider `Cc1ccc(-c2nc3cc([N+](=O)[O-])ccc3[nH]2)c(C)c1`, for which the IC50 stood at 1.54 µM.
Turning to `O=[N+]([O-])c1ccc2[nH]c(-c3ccccc3N3CCCC3)nc2c1`, the IC50 was found to be 6.77 µM.
The value for `FC(F)(F)c1ccc2[nH]c(-c3ccc(-c4nnc[nH]4)cc3)nc2c1` was 3.08 µM.
As for `FC(F)(F)c1ccc2[nH]c(-c3ccc(-c4c[nH]nc4C(F)(F)F)cc3)nc2c1`, the IC50 is 1.2 µM.
In the case of `O=[N+]([O-])c1ccc2[nH]c(-c3ccc(Cl)c(Br)c3)nc2c1`, the IC50 is above 31.6 µM.
`FC(F)(F)c1ccc2[nH]c(-c3ccc(-c4ccoc4)cc3)nc2c1`: the IC50 is 1.19 µM.
Regarding `NS(=O)(=O)c1ccc(-c2nc3cc([N+](=O)[O-])ccc3[nH]2)cc1`, the IC50 was above 31.6 µM.
The value for `Cn1cc(-c2ccc(-c3nc4cc(C(F)(F)F)ccc4[nH]3)cc2)cn1` was 1.47 µM; that for `O=[N+]([O-])c1ccc2[nH]c(-c3cccc(Cl)c3)nc2c1` was 9.98 µM; that for `Cc1cc(Cl)ccc1-c1nc2cc([N+](=O)[O-])ccc2[nH]1` was 2.49 µM.
Consider `NCc1ccc(-c2ccc(-c3nc4cc(C(F)(F)F)ccc4[nH]3)cc2)cc1`, for which the IC50 stood at 0.72 µM.
In the case of `O=[N+]([O-])c1ccc2[nH]c(-c3cccc(N4CCCC4)c3)nc2c1`, the IC50 amounted to 6.01 µM.
For the compound `CC(=O)c1ccccc1-c1nc2cc([N+](=O)[O-])ccc2[nH]1`, the IC50 is above 31.6 µM.
Regarding `O=[N+]([O-])c1ccc2[nH]c(-c3ccc(C(F)(F)F)cc3)nc2c1`, the IC50 is above 31.6 µM.
Turning to `Cc1cc(-c2nc3cc([N+](=O)[O-])ccc3[nH]2)ccc1Cl`, the IC50 is 2.29 µM.
On to `CC(=O)c1cccc(-c2nc3cc([N+](=O)[O-])ccc3[nH]2)c1`, for which the IC50 was above 31.6 µM.
Regarding `CC(=O)c1ccc(-c2nc3cc([N+](=O)[O-])ccc3[nH]2)cc1`, the IC50 worked out at 9.32 µM.
For `CC(C)(C)c1ccc(-c2nc3cc([N+](=O)[O-])ccc3[nH]2)cc1`, the IC50 worked out at 3.18 µM.
As to `O=[N+]([O-])c1ccc2[nH]c(-c3ccc(N4CCCC4)cc3)nc2c1`, the IC50 was 1.81 µM.
